Source: US20110212484A1, “In Vitro Model of Focal Ischemia” (priority 2008, published 2011)

How the values were obtained:
[1] = system: cortical neurons; assay: Focal glutamate perfusion of brain slices, intracellular recordings of membrane potential; details: aCSF containing 20 mM glutamate focally applied at 100 μL/min, neurons within the region of focal perfusion
[2] = system: rat brain slices; assay: In vitro focal ischemia (focal OGD) in brain slices, TTC staining of infarct area; format: cell-based; details: 100 μM lidocaine added to OGD media, focally applied 2 hours at 100 μL/min, TTC stain
Description: In order to mimic in vivo focal ischemia in the present in vitro system, oxygen-glucose deprived (OGD) medium was focally applied to a small area (0.25-0.5 mm wide or 5-10% of cortex) within the cortex of a brain slice, or within a slice of liver or heart tissue. […] Oxygen was displaced from the media by bubbling with 95% N2 and 5% CO2. […] Nozzle of the microperfusion system was made from a 23 gauge stainless steel tube and was mounted to a micromanipulator in order to ensure accurate placement. Using the micromanipulator the nozzle was lowered until it was just touching the surface of the slice. […] In FIG. 1C, OGD solution was focally applied to the slice for 1 hour. […] In FIG. 1D, OGD solution was focally applied to the slice for 2 hours.

[3] = system: cortical neurons adjacent to the region of focal OGD perfusion; assay: Penumbra region of focal ischemia: intracellular recordings of membrane potential adjacent to the focal OGD perfusion; format: cell-based, rat
Description: In order to mimic in vivo focal ischemia in the present in vitro system, oxygen-glucose deprived (OGD) medium was focally applied to a small area (0.25-0.5 mm wide or 5-10% of cortex) within the cortex of a brain slice, or within a slice of liver or heart tissue. […] The OGD medium for liver and heart slices was deoxygenated, glucose-free Krebs solution. Oxygen was displaced from the media by bubbling with 95% N2 and 5% CO2. […] Nozzle of the microperfusion system was made from a 23 gauge stainless steel tube and was mounted to a micromanipulator in order to ensure accurate placement. Using the micromanipulator the nozzle was lowered until it was just touching the surface of the slice.
OGD solution was focally perfused onto rat brain slices bathed in oxygenated aCSF solution. […] A representative recording of membrane potential is depicted in FIG. 5A. Focal perfusion of OGD caused neurons outside the region of perfusion to progressively depolarize. When edaravone (100 μM) was added to the OGD media this depolarization was attenuated. This is reflected in the mean data (FIG. 5B). Percentage neuronal survival after 75 minutes is reflected in FIG. 5C. Neurons were considered “dead” if they became irreversibly depolarized to approximately 0 mV. The addition of 100 μM edaravone doubled neuronal survival from OGD. […] In FIG. 5 the * denotes p<0.05.

`N[C@@H](CCC(=O)O)C(=O)O` [glutamate] was tested. Which “membrane potential of neuron (depolarization)” value [1] did it give?
The value was “caused a rapid depolarization of the neuron”.

With `CCN(CC)CC(=O)Nc1c(C)cccc1C` [Lidocaine, lidocaine] as the compound, how does the “area of cell death caused by OGD” value [2] read?
Its value is “reduced the area of cell death”.

Which results are given for `CC1=NN(c2ccccc2)C(=O)C1` [edaravone]?
progressive depolarization of neurons outside the region of perfusion ([3]; 100 μM edaravone added to OGD media, approximately 0.9 mm from focal perfusion): attenuated; neuronal survival from OGD ([3]; 100 μM edaravone, after 75 minutes, penumbra region): doubled
